# Measured values: patent US8192962B2, “Processes for detecting toxic substances” (Daikin Industries, Ltd., priority 2001, dated 2012)
# Test system: Genes belonging to other category
# Experiment: DNA chip mRNA expression in yeast, genes belonging to other category (Table 9)
# Type: cell-based, Saccharomyces cerevisiae S288C
# In short: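 Value is the scanned fluorescence intensity ratio of exposed versus chemical-free cells. Log-phase S288C yeast in YPD at 25° C. received one toxic substance for two hours, dosed to slow growth without killing; Cy3/Cy5-labeled cDNA from oligo-dT-purified mRNA was hybridized to a whole-genome chip at 65° C.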
compound,measurement,setting,value
"S=C([S-])NCCNC(=S)[S-].[Zn+2] [(11), zinc N,N′-ethylenebis(dithiocarbamate)]",The level of expressed mRNA in the presence of chemical substance/The level of expressed mRNA in the absence of chemical substance,yeast gene YJL141C,1.2
same,The level of expressed mRNA in the presence of chemical substance/The level of expressed mRNA in the absence of chemical substance,yeast gene YJR004C,0.7
same,The level of expressed mRNA in the presence of chemical substance/The level of expressed mRNA in the absence of chemical substance,yeast gene YJR058C,1.2
same,The level of expressed mRNA in the presence of chemical substance/The level of expressed mRNA in the absence of chemical substance,yeast gene YJR069C,0.9
same,The level of expressed mRNA in the presence of chemical substance/The level of expressed mRNA in the absence of chemical substance,yeast gene YJR086W,1.0
same,The level of expressed mRNA in the presence of chemical substance/The level of expressed mRNA in the absence of chemical substance,yeast gene YKL008C,1.5
same,The level of expressed mRNA in the presence of chemical substance/The level of expressed mRNA in the absence of chemical substance,yeast gene YKL013C,1.1
same,The level of expressed mRNA in the presence of chemical substance/The level of expressed mRNA in the absence of chemical substance,yeast gene YKL039W,1.0
same,The level of expressed mRNA in the presence of chemical substance/The level of expressed mRNA in the absence of chemical substance,yeast gene YKL041W,1.2
same,The level of expressed mRNA in the presence of chemical substance/The level of expressed mRNA in the absence of chemical substance,yeast gene YKL079W,1.3
same,The level of expressed mRNA in the presence of chemical substance/The level of expressed mRNA in the absence of chemical substance,yeast gene YKL096W,3.5
same,The level of expressed mRNA in the presence of chemical substance/The level of expressed mRNA in the absence of chemical substance,yeast gene YKL097W-A,1.6
same,The level of expressed mRNA in the presence of chemical substance/The level of expressed mRNA in the absence of chemical substance,yeast gene YKL139W,1.4
same,The level of expressed mRNA in the presence of chemical substance/The level of expressed mRNA in the absence of chemical substance,yeast gene YKL165C,0.3
same,The level of expressed mRNA in the presence of chemical substance/The level of expressed mRNA in the absence of chemical substance,yeast gene YKL193C,1.7
same,The level of expressed mRNA in the presence of chemical substance/The level of expressed mRNA in the absence of chemical substance,yeast gene YKL198C,1.4
same,The level of expressed mRNA in the presence of chemical substance/The level of expressed mRNA in the absence of chemical substance,yeast gene YKR014C,1.1
same,The level of expressed mRNA in the presence of chemical substance/The level of expressed mRNA in the absence of chemical substance,yeast gene YLR093C,1.0
same,The level of expressed mRNA in the presence of chemical substance/The level of expressed mRNA in the absence of chemical substance,yeast gene YLR110C,3.2
same,The level of expressed mRNA in the presence of chemical substance/The level of expressed mRNA in the absence of chemical substance,yeast gene YLR118C,1.2
same,The level of expressed mRNA in the presence of chemical substance/The level of expressed mRNA in the absence of chemical substance,yeast gene YLR120C,1.2
same,The level of expressed mRNA in the presence of chemical substance/The level of expressed mRNA in the absence of chemical substance,yeast gene YLR136C,1.2
same,The level of expressed mRNA in the presence of chemical substance/The level of expressed mRNA in the absence of chemical substance,yeast gene YLR178C,3.7
same,The level of expressed mRNA in the presence of chemical substance/The level of expressed mRNA in the absence of chemical substance,yeast gene YLR250W,1.4
same,The level of expressed mRNA in the presence of chemical substance/The level of expressed mRNA in the absence of chemical substance,yeast gene YLR251W,4.1
same,The level of expressed mRNA in the presence of chemical substance/The level of expressed mRNA in the absence of chemical substance,yeast gene YLR327C,5.0
same,The level of expressed mRNA in the presence of chemical substance/The level of expressed mRNA in the absence of chemical substance,yeast gene YLR340W,1.4
same,The level of expressed mRNA in the presence of chemical substance/The level of expressed mRNA in the absence of chemical substance,yeast gene YLR356W,3.1
same,The level of expressed mRNA in the presence of chemical substance/The level of expressed mRNA in the absence of chemical substance,yeast gene YLR360W,0.9
same,The level of expressed mRNA in the presence of chemical substance/The level of expressed mRNA in the absence of chemical substance,yeast gene YLR362W,1.5
same,The level of expressed mRNA in the presence of chemical substance/The level of expressed mRNA in the absence of chemical substance,yeast gene YLR391W,1.4
same,The level of expressed mRNA in the presence of chemical substance/The level of expressed mRNA in the absence of chemical substance,yeast gene YLR429W,0.9
same,The level of expressed mRNA in the presence of chemical substance/The level of expressed mRNA in the absence of chemical substance,yeast gene YML055W,1.4
same,The level of expressed mRNA in the presence of chemical substance/The level of expressed mRNA in the absence of chemical substance,yeast gene YMR004W,2.5
same,The level of expressed mRNA in the presence of chemical substance/The level of expressed mRNA in the absence of chemical substance,yeast gene YMR091C,0.9
same,The level of expressed mRNA in the presence of chemical substance/The level of expressed mRNA in the absence of chemical substance,yeast gene YMR092C,1.2
same,The level of expressed mRNA in the presence of chemical substance/The level of expressed mRNA in the absence of chemical substance,yeast gene YMR094W,1.0
same,The level of expressed mRNA in the presence of chemical substance/The level of expressed mRNA in the absence of chemical substance,yeast gene YMR104C,1.1
same,The level of expressed mRNA in the presence of chemical substance/The level of expressed mRNA in the absence of chemical substance,yeast gene YMR112C,0.9
same,The level of expressed mRNA in the presence of chemical substance/The level of expressed mRNA in the absence of chemical substance,yeast gene YMR214W,0.7
same,The level of expressed mRNA in the presence of chemical substance/The level of expressed mRNA in the absence of chemical substance,yeast gene YMR219W,1.5
same,The level of expressed mRNA in the presence of chemical substance/The level of expressed mRNA in the absence of chemical substance,yeast gene YMR226C,1.4
same,The level of expressed mRNA in the presence of chemical substance/The level of expressed mRNA in the absence of chemical substance,yeast gene YMR238W,1.2
same,The level of expressed mRNA in the presence of chemical substance/The level of expressed mRNA in the absence of chemical substance,yeast gene YMR255W,1.2
same,The level of expressed mRNA in the presence of chemical substance/The level of expressed mRNA in the absence of chemical substance,yeast gene YMR275C,1.1
same,The level of expressed mRNA in the presence of chemical substance/The level of expressed mRNA in the absence of chemical substance,yeast gene YMR276W,1.9
same,The level of expressed mRNA in the presence of chemical substance/The level of expressed mRNA in the absence of chemical substance,yeast gene YMR314W,1.8
same,The level of expressed mRNA in the presence of chemical substance/The level of expressed mRNA in the absence of chemical substance,yeast gene YNL006W,1.1
same,The level of expressed mRNA in the presence of chemical substance/The level of expressed mRNA in the absence of chemical substance,yeast gene YNL007C,1.3
same,The level of expressed mRNA in the presence of chemical substance/The level of expressed mRNA in the absence of chemical substance,yeast gene YNL039W,0.4
